Source: PubChem BioAssay (NCI)
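Protocol summary: plate cells (96-well), add compound at 5 concentrations, incubate 48 h, interpolate endpoints linearly. TGI: total growth inhibition.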

Key:
Test in all cases: NCI tumour cell line growth inhibition, 48 h
[1] = system: CAKI-1 renal
[2] = system: SN12C renal
[3] = system: LOX IMVI melanoma
[4] = system: COLO 205 colon
[5] = system: NCI-H522 lung
[6] = system: HOP-62 NSCLC
[7] = system: EKVX NSCLC
[8] = system: DMS 114 small cell lung
[9] = system: TK-10 renal
[10] = system: SK-MEL-28 melanoma
[11] = system: OVCAR-8 ovarian
[12] = system: HCT-116 colon
[13] = system: UO-31 renal
[14] = system: SF-539 CNS
[15] = system: HCC-2998 colon
[16] = system: 786-0 renal
[17] = system: SNB-19 CNS
[18] = system: XF 498 CNS
[19] = system: HCT-15 colon
[20] = system: NCI-H226 lung
[21] = system: SK-MEL-5 melanoma
[22] = system: HOP-92 NSCLC
[23] = system: A549 NSCLC
[24] = system: SF-295 CNS
[25] = system: HOP-18 NSCLC
[26] = system: OVCAR-3 ovarian
[27] = system: K-562 leukemia
[28] = system: SF-268 CNS
[29] = system: U251 CNS
[30] = system: KM20L2 colon
[31] = system: UACC-62 melanoma
[32] = system: NCI-H23 lung
[33] = system: RXF 393 renal
[34] = system: MOLT-4 leukemia
[35] = system: KM12 colon
[36] = system: SNB-78 CNS
[37] = system: OVCAR-4 ovarian
[38] = system: SK-MEL-2 melanoma
[39] = system: DMS 273 small cell lung
[40] = system: SNB-75 CNS
[41] = system: IGROV1 ovarian
[42] = system: OVCAR-5 ovarian
[43] = system: SW-620 colon
[44] = system: ACHN renal
[45] = system: SR leukemia
[46] = system: M14 melanoma
[47] = system: M19-MEL melanoma
[48] = system: MALME-3M melanoma
[49] = system: RXF-631 renal
[50] = system: SK-OV-3 ovarian
[51] = system: UACC-257 melanoma
[52] = system: DLD-1 colon
[53] = system: NCI-H460 lung
[54] = system: A498 renal
[55] = system: LXFL 529 NSCLC
[56] = system: CCRF-CEM leukemia
[57] = system: HL-60(TB) leukemia
[58] = system: HT29 colon
[59] = system: RPMI-8226 leukemia

Question: COc1ccc2nc3cc(Cl)ccc3c(Sc3ccccc3[N+](=O)[O-])c2c1 was tested. Which TGI [1] did it give?
Answer: > 100 µM

Question: What about the TGI [2] of the same compound?
Answer: 75.7 µM

Question: And the TGI [3]?
Answer: > 100 µM

Question: What about the TGI [4] of the same compound?
Answer: 37.7 µM

Question: And the TGI [5]?
Answer: > 100 µM

Question: What about the TGI [6] of the same compound?
Answer: > 100 µM

Question: What about the TGI [7] of the same compound?
Answer: > 100 µM

Question: What about the TGI [8] of the same compound?
Answer: > 100 µM

Question: What about the TGI [9] of the same compound?
Answer: > 100 µM

Question: What about the TGI [10] of the same compound?
Answer: > 100 µM

Question: What about the TGI [11] of the same compound?
Answer: > 100 µM

Question: And the TGI [12]?
Answer: > 100 µM

Question: What about the TGI [13] of the same compound?
Answer: > 100 µM

Question: And the TGI [14]?
Answer: > 100 µM

Question: What about the TGI [15] of the same compound?
Answer: > 100 µM

Question: What about the TGI [16] of the same compound?
Answer: > 100 µM

Question: And the TGI [17]?
Answer: > 100 µM

Question: What about the TGI [18] of the same compound?
Answer: 97.8 µM

Question: And the TGI [19]?
Answer: > 100 µM

Question: And the TGI [20]?
Answer: 67.8 µM

Question: What about the TGI [21] of the same compound?
Answer: > 100 µM

Question: And the TGI [22]?
Answer: > 100 µM

Question: What about the TGI [23] of the same compound?
Answer: > 100 µM

Question: What about the TGI [24] of the same compound?
Answer: > 100 µM

Question: And the TGI [25]?
Answer: > 100 µM

Question: And the TGI [26]?
Answer: > 100 µM

Question: What about the TGI [27] of the same compound?
Answer: > 100 µM

Question: And the TGI [28]?
Answer: > 100 µM

Question: What about the TGI [29] of the same compound?
Answer: > 100 µM

Question: And the TGI [30]?
Answer: > 100 µM

Question: And the TGI [31]?
Answer: > 100 µM

Question: And the TGI [32]?
Answer: > 100 µM

Question: And the TGI [33]?
Answer: 93.2 µM

Question: And the TGI [34]?
Answer: > 100 µM

Question: What about the TGI [35] of the same compound?
Answer: > 100 µM

Question: What about the TGI [36] of the same compound?
Answer: > 100 µM

Question: And the TGI [37]?
Answer: > 100 µM

Question: What about the TGI [38] of the same compound?
Answer: > 100 µM

Question: What about the TGI [39] of the same compound?
Answer: > 100 µM

Question: What about the TGI [40] of the same compound?
Answer: 37.3 µM

Question: And the TGI [41]?
Answer: > 100 µM

Question: What about the TGI [42] of the same compound?
Answer: > 100 µM

Question: And the TGI [43]?
Answer: > 100 µM

Question: What about the TGI [44] of the same compound?
Answer: > 100 µM

Question: And the TGI [45]?
Answer: > 100 µM

Question: What about the TGI [46] of the same compound?
Answer: > 100 µM

Question: And the TGI [47]?
Answer: > 100 µM

Question: And the TGI [48]?
Answer: > 100 µM

Question: And the TGI [49]?
Answer: > 100 µM

Question: What about the TGI [50] of the same compound?
Answer: > 100 µM

Question: And the TGI [51]?
Answer: > 100 µM

Question: And the TGI [52]?
Answer: > 100 µM

Question: What about the TGI [53] of the same compound?
Answer: > 100 µM

Question: What about the TGI [54] of the same compound?
Answer: > 100 µM

Question: What about the TGI [55] of the same compound?
Answer: > 100 µM

Question: And the TGI [56]?
Answer: > 100 µM

Question: What does the source list for C/C(CCn1[nH]c(=O)ccc1=O)=N\O?
Answer: TGI [1]: > 100 µM; TGI [2]: > 100 µM; TGI [3]: > 100 µM; TGI [6]: > 100 µM; TGI [7]: > 100 µM; TGI [8]: > 100 µM; TGI [9]: > 100 µM; TGI [10]: > 100 µM; TGI [11]: > 100 µM; TGI [12]: > 100 µM; TGI [13]: > 100 µM; TGI [14]: > 100 µM; TGI [15]: > 100 µM; TGI [16]: > 100 µM; TGI [17]: > 100 µM; TGI [18]: > 100 µM; TGI [19]: > 100 µM; TGI [20]: > 100 µM; TGI [21]: > 100 µM; TGI [22]: > 100 µM; TGI [23]: > 100 µM; TGI [24]: > 100 µM; TGI [25]: > 100 µM; TGI [26]: > 100 µM; TGI [27]: > 100 µM; TGI [28]: > 100 µM; TGI [30]: > 100 µM; TGI [31]: > 100 µM; TGI [32]: > 100 µM; TGI [33]: > 100 µM; TGI [34]: > 100 µM; TGI [35]: > 100 µM; TGI [36]: > 100 µM; TGI [37]: > 100 µM; TGI [38]: > 100 µM; TGI [39]: > 100 µM; TGI [57]: > 100 µM; TGI [40]: > 100 µM; TGI [41]: > 100 µM; TGI [42]: > 100 µM; TGI [43]: > 100 µM; TGI [44]: > 100 µM; TGI [45]: > 100 µM; TGI [46]: > 100 µM; TGI [47]: > 100 µM; TGI [48]: > 100 µM; TGI [58]: > 100 µM; TGI [49]: > 100 µM; TGI [51]: > 100 µM; TGI [52]: > 100 µM; TGI [53]: > 100 µM; TGI [54]: > 100 µM; TGI [59]: > 100 µM; TGI [55]: > 100 µM; TGI [56]: > 100 µM
